The source of these data is patent US20240400620A1, “Compositions Containing Coronavirus Proteins and Epitopes” (priority 2021, published 2024).

Like-named read-outs stand apart in the source and are kept apart here. No end group written: not given here.

Series [1] has as its system splenocytes or lung leukocytes (IFNγ-producing peptide-specific T cells) from DNA-vaccinated HLA-B*0702 mice. Briefly: IFNγ-ELISpot, cells of DNA-vaccinated HLA-B*0702 Ifnar1^−/− mice stimulated with SARS-CoV-2 peptides. The series is classed as cell-based. Conditions: 20 h; for IFNγ production (ELISpot) compared with unstimulated control cells: splenocytes, day 21, 10 μg/mL peptide; for IFNγ secretion (ELISpot): lung leukocytes, 10 μg/mL peptide.

For series [2], the system named is splenocytes or lung leukocytes from DNA-vaccinated HLA-DRB1*0101 mice. The series is classed as cell-based. Conditions: for stimulation of IFNγ production (ELISpot): splenocytes.
The subject of series [3] is activated (CD44+ CD62L−) CD8+ T cells from B.1.351-infected HLA-B*0702 Ifnar1^−/− mice. It is filed as cell-based.
For series [4], the system named is activated CD4+ T cells from OC43-infected HLA-DRB1*0101 Ifnar1^−/− mice. It is filed as cell-based. Conditions: for expansion of peptide-reactive IFNγ+ CD4+ T cells: day 8 post-OC43 infection.
Series [5] has as its system SARS-CoV-2 B.1.351. The following applies: mouse, in vivo.
The subject of series [6] is activated CD8+ T cells from OC43-infected HLA-B*0702 Ifnar1^−/− mice. It is filed as cell-based. The following applies: splenocytes.
[7] abbreviates: spleen, day 16 post-OC43 infection.

For the sequence “SPRRARSVA (misc_feature - Spike; Severe acute respiratory syndrome-related coronavirus) [S680-688]”, the “IFNγ production (ELISpot) compared with unstimulated control cells” value in series [1] is recorded as “significantly higher levels of IFNγ”.

Turning to TSNFRVQPTESIVRF [S315-329], in series [2] (lung leukocytes), the “stimulation of IFNγ response (ELISpot)” value is “significantly stimulated a response”. Besides, in series [2], the “stimulation of IFNγ production (ELISpot)” value is on record as “significant stimulation of IFNγ production”. For the same sequence, the “IFNγ response (ELISpot)” value in series [2] (splenocytes and lung leukocytes) is “capable of stimulating both splenocytes and lung leukocytes”. Regarding “SPRRARSV (misc_feature - Spike; Severe acute respiratory syndrome-related coronavirus) [S680-687]”, the “IFNγ production (ELISpot) compared with unstimulated control cells” value in series [1] is “significantly higher levels of IFNγ”.

As for LNTLVKQLSSNFGAI [S959-973], the “stimulation of IFNγ production (ELISpot)” value in series [2] was “significant stimulation of IFNγ production”. “LKFPRGQGVPI (misc_feature - Nucleoprotein; Severe acute respiratory syndrome-related coronavirus) [N64-74]”: in series [1], the “IFNγ secretion (ELISpot)” value was “significant IFNγ secretion” and the “IFNγ production (ELISpot) compared with unstimulated control cells” value is listed as “significantly higher levels of IFNγ”. As for “PKEITVATSRTLSYY (misc_feature - Membrane; Severe acute respiratory syndrome-related coronavirus) [M165-179]”, in series [2], the “stimulation of IFNγ production (ELISpot)” value is “significant stimulation of IFNγ production”. For “FPRGQGVPIN (misc_feature - Nucleoprotein; Severe acute respiratory syndrome-related coronavirus) [N66-75]”, in series [1], the “IFNγ secretion (ELISpot)” value is “significant IFNγ secretion” and the “IFNγ production (ELISpot) compared with unstimulated control cells” value is given as “significantly higher levels of IFNγ”. Regarding “FARTRSMWSF (misc_feature - Membrane; Severe acute respiratory syndrome-related coronavirus) [M103-112]”, in series [3], the “frequencies of activated IFNγ+, IFNγ+/TNF+, IFNγ+/CD107a+ and IFNγ+/TNF+/IL-2+ CD8+ T cells compared with unstimulated cultures” value is recorded as “no significant expansion”. “FPRGQGVPINT (misc_feature - Nucleoprotein; Severe acute respiratory syndrome-related coronavirus) [N66-76]”: in series [1], the “IFNγ secretion (ELISpot)” value is “significant IFNγ secretion” and the “IFNγ production (ELISpot) compared with unstimulated control cells” value was “significantly higher levels of IFNγ”. In series [3], the “frequencies of activated IFNγ+, IFNγ+/TNF+, IFNγ+/CD107a+ and IFNγ+/TNF+/IL-2+ CD8+ T cells compared with unstimulated cultures” value is reported as “no significant expansion”. Take “TNSPRRARSVA (misc_feature - Spike; Severe acute respiratory syndrome-related coronavirus) [S678-688]”: the “IFNγ production (ELISpot) compared with unstimulated control cells” value in series [1] is on record as “significantly higher levels of IFNγ”. In addition, the “frequencies of activated IFNγ+, IFNγ+/TNF+, IFNγ+/CD107a+ and IFNγ+/TNF+/IL-2+ CD8+ T cells compared with unstimulated cultures” value in series [3] is “no significant expansion”. Consider “YYRRATRRIRGGDGK (misc_feature - Nucleoprotein; Severe acute respiratory syndrome-related coronavirus) [N86-100]”, for which the “IL-2 production by CD4+ T cells” value in series [4] (day 16 post-OC43 infection) was “stimulated IL-2 production”. Moreover, the “expansion of polyfunctional cross-reactive IFNγ+/TNF+ CD4+ T cells” value in series [4] (setting [7]) is listed as “significantly expanded”. Turning to LYLYALVYFLQSINF [ORF3a106-120], the “IL-2 production by CD4+ T cells” value in series [4] (day 16 post-OC43 infection) is listed as “stimulated IL-2 production”. As for LSPRWYFYYL [N104-113], the “frequencies of N104-113-reactive polyfunctional (IFNγ+/TNF+, IFNγ+/TNF+/IL-2+) and cytotoxic multifunctional (IFNγ+/CD107a+) CD8+ T cells vs mock-immunized” value in series [5] was “significantly increased”. For “VLAAVYRINWITGGI (misc_feature - Membrane; Severe acute respiratory syndrome-related coronavirus) [M66-80]”, the “expansion of peptide-reactive IFNγ+ CD4+ T cells” value in series [4] (spleen) was “statistically significant”. In the case of “VPVAIHADQL (misc_feature - Spike; Severe acute respiratory syndrome-related coronavirus) [S620-629]”, the “IFNγ production (ELISpot) compared with unstimulated control cells” value in series [1] was “significantly higher levels of IFNγ”. For “KFPRGQGVPI (misc_feature - Nucleoprotein; Severe acute respiratory syndrome-related coronavirus) [N65-74]”, in series [1], the “IFNγ secretion (ELISpot)” value is “significant IFNγ secretion” and the “IFNγ production (ELISpot) compared with unstimulated control cells” value was “significantly higher levels of IFNγ”. As for RCSFYEDFLEYHDVR [ORF8101-115], the “frequencies of cross-reactive IFNγ+ CD4+ T cells” value in series [4] is reported as “significantly increased”. Regarding “LPKEITVAT (misc_feature - Membrane; Severe acute respiratory syndrome-related coronavirus) [M164-172]”, the “frequencies of activated IFNγ+, IFNγ+/TNF+, IFNγ+/CD107a+ and IFNγ+/TNF+/IL-2+ CD8+ T cells compared with unstimulated cultures” value in series [3] was “no significant expansion”.

As to “SPRWYFYYLG (misc_feature - Nucleoprotein; Severe acute respiratory syndrome-related coronavirus) [N105-114]”, the “IFNγ production (ELISpot) compared with unstimulated control cells” value in series [1] is given as “significantly higher levels of IFNγ”. Turning to QSINFVRIIMRLWLC [ORF3a116-130], the “expansion of peptide-reactive IFNγ+ CD4+ T cells” value in series [4] (spleen) was “statistically significant”.

For the sequence APHGVVFL [S1056-1063], in series [1], the “IFNγ secretion (ELISpot)” value was “significant IFNγ secretion” and the “IFNγ production (ELISpot) compared with unstimulated control cells” value is on record as “significantly higher levels of IFNγ”. Also, in series [3], the “frequencies of activated IFNγ+, IFNγ+/TNF+, IFNγ+/CD107a+ and IFNγ+/TNF+/IL-2+ CD8+ T cells compared with unstimulated cultures” value is “no significant expansion”.

Regarding “LSPRWYFYYLGTGPEAGL (misc_feature - Nucleocapsid; Severe acute respiratory syndrome-related coronavirus) [N104-121]”, in series [6] (day 16 post-OC43 infection), the “expansion of peptide-reactive IFNγ+ CD8+ T cells” value came out at 9 fold and the “expansion of peptide-reactive IFNγ+/TNF+ CD8+ T cells” value came out at 12 fold.

Regarding GSLVVRCSFYEDFLE [ORF896-110], in series [4] (setting [7]), the “frequencies of cross-reactive IFNγ+ CD4+ T cells” value was “significantly increased”. “LPKGIMMNV (misc_feature - ORF1ab; Severe acute respiratory syndrome-related coronavirus) [ORF1ab6834-6844]”: the “frequencies of activated IFNγ+ and IFNγ/TNF+ CD8+ T cells” value in series [6] (day 8 post-OC43 infection) is on record as “increase was significant”.
